Measured values: patent publication US9586994B2, “CD44V6-derived peptides for treating breast cancer” (KARLSRUHER INSTITUT FÜR TECHNOLOGIE, priority 2012, dated 2017)

Experiments:
L3.6pl cells [1] = assay: Human orthotopic pancreatic cancer model, L3.6pl cells in nude mice, treatment from day 7; assay type: in vivo, mouse
Protocol: In the case of the human orthotopic model, L3.6pl pancreatic carcinoma cells (passage 24-26) were suspended in Hank's balanced salt solution (Invitrogen, Karlsruhe, Germany) after trypsinization. The cells were injected orthotopically in the pancreas of male nude mice as described (Bruns C J et al. (1999) Neoplasia 1(1):50-62). Two groups of 15 mice each were injected i.p. 7 days later with either the human v6 peptide respectively rat control peptide (20 μg). For all experiments described and depicted herein either the rat 14mer control peptide or the human 14mer peptide were used. All experiments were then repeated with the rat 5mer control peptide or the human 5mer peptide (N-R-W-H-E, SEQ ID NO: 2). […] The injection was repeated three times per week for 21 days. Two days after the last treatment the animals were killed.
7 μm thick paraffin sections were deparaffinized and rehydrated. For P-Met staining antigen unmasking was achieved by boiling the slides in 1 mM EDTA pH 8.0 followed by incubation for 15 minutes at a sub-boiling temperature, for CD31 staining the sections were treated with Proteinase K (8 μg/ml) for […] at 37° C. For immunofluorescence staining of P-Met, unspecific binding was blocked with 5% goat serum (DAKO, Glostrup, Denmark) (diluted in 1×PBS/0.3% Triton X-100) for 60 minutes. In the case of immunohistochemistry, endogenous peroxidases were at first blocked with 3% H2O2 in PBS followed by incubation with biotin blocking system (Dako, Glostrup, Denmark) and then unspecific binding was inhibited by incubation with 5% FCS in PBS was used for blocking. The sections were incubated with the P-Met antibody (D26, dilution 1:50 in 1×PBS/1% BSA/0.3% Triton X-100), Met antibody (C-28, dilution 1:50), GFP antibody (sc-101525, dilution 1:50) or CD31 antibody (5 μg/ml) over night or VFF18 (5 μg/ml) o/n at 4° C. After washing in PBS the sections were incubated with Alexa Fluor R 546 goat anti-rabbit (in case of immunofluorescence P-Met and Met staining, dilution 1:500) or a biotinylated secondary antibody (for immunohistochemical stainings rabbit anti-rat antibody for VFF18 and CD31, goat anti-rabbit for P-Met, cleaved Caspase-3 and cleaved Caspase-8 and rabbit anti-mouse for GFP, dilution 1:500) for 45 minutes. For DAB staining the sections were treated with a streptavidin-peroxidase conjugate (Dako, Glostrup, Denmark) and developed with DAB (3,3′-diaminobenzidine) substrate system (3,3′-diaminobenzidine; Biozol, Eching, Germany) For immunofluorescence DAPI was used for nuclear staining.
To test the effect of the peptide on tumor growth and metastasis formation the L3.6pl cells were orthotopically injected into the pancreas of immunosuppressed mice (NCI-nu). […] The primary tumor expresses a high amount of CD44v6 (FIG. 19B). […] Indeed, human HGF in a concentration of 3375 pg/ml was detected in the supernatant (see Material and Methods) after 5 days of culture (data not shown).

CD44v6 [2] = assay: HGF-induced activation of Met and ERK in L3.6pl cells (Western blot); assay type: cell-based, human; settings: peptide before induction with 10 ng/ml HGF
Summary of the method: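 L3.6pl human pancreatic carcinoma cells serum-starved 24 h, pretreated 10 min at 37° C with CD44v6 or control peptide (100 ng/mL), then stimulated with HGF (10 ng/mL) 5 min. Phospho-Met and phospho-ERK detected by western blot with total Met/ERK reprobe; bands quantified densitometrically.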

L3.6pl cells [3] = assay: Regression of already established metastases, L3.6pl orthotopic mouse model; assay type: in vivo; settings: nude mice, orthotopic L3.6pl, treatment from week 3 for three weeks; human v6 peptide or rat control peptide 20 μg i.p.
Protocol: In order to examine the regression of metastases (either BSp73ASs6 or L3.6pl) were implanted as described above. Tumor growth was allowed for three weeks. At that time all animals had developed metastases in the control group. Animals were injected i.p. with 20 μg (L3.6pl orthotopic mouse model: human v6 peptide or rat control peptide) or i.v. with 200 μg (rat syngeneic model: rat v6 peptide or mouse control peptide) of peptides three times per week. Animals were killed 23 days after the start of the peptide treatment.
The specific binding of the CD44v6 peptides to specific areas of the lungs in the rat system and of the liver in the human model raises the question whether these peptides might have an effect on already established metastases. In the experiments described in FIGS. 17 and 19 the peptides were applied early after injection of the tumor cells and repressed completely the establishment of metastases. In order to measure the effect of the CD44v6 peptide on already established metastases, other experimental settings were used. BSp73ASs6 cells were injected subcutaneously into syngeneic rats and L3.6pl cells orthotopically into male nude mice and allowed to grow for 3 weeks. […]

CD44v6 [4] = molecular target: T1, CD44v6 (Homo sapiens, UniProt P16070); assay: Peptide blocking of EGF/TGFα-induced Erk phosphorylation in MCF7 cells (Western blot); assay type: cell-based; settings: peptide 100 ng/ml
T1 construct: endogenous in cells; host or cells: MCF7; MCF10A
T1 sequence (P16070 21-742): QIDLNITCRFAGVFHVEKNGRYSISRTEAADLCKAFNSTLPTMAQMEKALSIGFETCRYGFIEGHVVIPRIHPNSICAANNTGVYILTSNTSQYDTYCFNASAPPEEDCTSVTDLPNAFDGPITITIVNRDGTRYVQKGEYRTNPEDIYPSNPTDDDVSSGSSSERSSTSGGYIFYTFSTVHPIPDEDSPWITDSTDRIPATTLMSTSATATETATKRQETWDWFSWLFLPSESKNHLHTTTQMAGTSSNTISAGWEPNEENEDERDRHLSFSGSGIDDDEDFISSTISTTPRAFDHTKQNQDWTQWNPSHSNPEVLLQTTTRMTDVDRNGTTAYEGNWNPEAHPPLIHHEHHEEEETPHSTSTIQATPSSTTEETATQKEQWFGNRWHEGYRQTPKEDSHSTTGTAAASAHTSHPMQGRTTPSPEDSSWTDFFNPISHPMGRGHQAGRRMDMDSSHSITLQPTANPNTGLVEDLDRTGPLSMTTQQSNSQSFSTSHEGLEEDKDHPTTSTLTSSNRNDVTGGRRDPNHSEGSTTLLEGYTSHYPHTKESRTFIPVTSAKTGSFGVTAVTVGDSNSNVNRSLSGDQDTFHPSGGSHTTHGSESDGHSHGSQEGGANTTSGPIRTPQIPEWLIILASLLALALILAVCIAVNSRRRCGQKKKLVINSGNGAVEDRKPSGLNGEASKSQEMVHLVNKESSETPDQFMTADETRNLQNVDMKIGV
Protocol: 3×10^5 were seeded per well of a 6-well plate and serum-starved for 24 hours. Afterwards the medium inside of each well was reduced to 1 ml and the respective peptide (v6 (both peptides of SEQ ID No.: 2 and 6 were tested), or ctrl peptide) was added at a concentration of 100 ng/ml. The cells then were incubated together with the peptide at 37° C. for 5 mins. Ligand concentration for all peptide blocking experiments was 20 ng/ml.
To assay protein expression via Western blot cells were washed 1× with PBS and afterwards lysed in 2×Laemmli sample buffer (160 mM Tris-HCl pH 6.8, 4% SDS, 16% glycerol, 0.1M DTT, 0.01% bromphenol blue). The sample was sheared through a 26 gauge needle. In succession the lysates were boiled for 5 mins at 99° C. in order to denature the proteins in the sample and then spun down at 10 000 rmp for 1 min Eventually the samples were loaded onto an SDS-PAGE gel.
To test whether CD44v6 acts as a co-receptor in MCF7 or MCF10A cells, a peptide blocking experiment using peptides of SEQ ID NO: 6 was conducted. The cells were serum-starved for 24 h and then pre-incubated with a v6 peptide or an unspecific control peptide. Then, the cells were induced with EGF or HGF as a control. As a read-out for ErbB-activation, the phosphorylation of the Erk-kinase was used.

- EGF-induced activation of the ErbB receptors (Erk phosphorylation) (CD44v6 [4]; MCF7, serum-starved, EGF 20 ng/ml): blocking of Erk phosphorylation
- Erk phosphorylation upon TGFα induction (CD44v6 [4]; MCF7, TGFα 20 ng/ml): not upon TGFα induction
Substance: NRWHE [SEQ ID NO: 2, human CD44v6 5mer peptide]
- Outcome of all experiments repeated with 5mer peptides, compared with 14mer (L3.6pl cells [1]; L3.6pl orthotopic model, 5mer instead of 14mer): same results as for the 14mer peptides
- Metastasis formation (liver) (L3.6pl cells [1]; nude mice, orthotopic L3.6pl, 20 μg i.p. three times per week): capable of inhibiting metastasis
- HGF-induced phosphorylation/activation of ERK (CD44v6 [2]): inhibited
- HGF-induced phosphorylation/activation of Met (CD44v6 [2]): inhibited
- Presence of metastases (liver) after treatment of established metastases (L3.6pl cells [3]): eliminate already established metastases
